Results published in the kinase profiling compilation of Christmann-Franck et al. (2016).

Columns and labels:
Assay in all cases: KINOMEscan competition binding
Details in all cases: compound 10.0 µM
[1] = target: ACVR2B (human) (UniProt Q13705)
[2] = target: ALK (human) (UniProt Q9UM73)
[3] = target: BMPR2 (human) (UniProt Q13873)
[4] = target: CDK3 (human) (UniProt Q00526)
[5] = target: CDKL1 (human) (UniProt Q00532)
[6] = target: CLK1 (human) (UniProt P49759)
[7] = target: CSNK1A1L (human) (UniProt Q8N752)
Chain of CSNK1A1L (human) (Q8N752 whole entry, looked up): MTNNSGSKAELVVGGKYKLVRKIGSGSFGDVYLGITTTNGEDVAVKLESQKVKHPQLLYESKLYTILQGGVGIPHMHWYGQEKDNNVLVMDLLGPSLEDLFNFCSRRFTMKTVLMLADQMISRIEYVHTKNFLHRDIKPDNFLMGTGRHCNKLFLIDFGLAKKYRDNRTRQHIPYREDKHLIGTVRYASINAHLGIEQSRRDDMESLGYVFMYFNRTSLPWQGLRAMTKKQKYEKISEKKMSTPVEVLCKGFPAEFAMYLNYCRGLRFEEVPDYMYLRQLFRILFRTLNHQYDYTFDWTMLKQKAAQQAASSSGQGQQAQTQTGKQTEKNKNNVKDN

[8] = target: DAPK2 (human) (UniProt Q9UIK4)
[9] = target: DCLK3 (human) (UniProt Q9C098)
[10] = target: EPHA8 (human) (UniProt P29322)
Chain of EPHA8 (human) (P29322 whole entry, looked up): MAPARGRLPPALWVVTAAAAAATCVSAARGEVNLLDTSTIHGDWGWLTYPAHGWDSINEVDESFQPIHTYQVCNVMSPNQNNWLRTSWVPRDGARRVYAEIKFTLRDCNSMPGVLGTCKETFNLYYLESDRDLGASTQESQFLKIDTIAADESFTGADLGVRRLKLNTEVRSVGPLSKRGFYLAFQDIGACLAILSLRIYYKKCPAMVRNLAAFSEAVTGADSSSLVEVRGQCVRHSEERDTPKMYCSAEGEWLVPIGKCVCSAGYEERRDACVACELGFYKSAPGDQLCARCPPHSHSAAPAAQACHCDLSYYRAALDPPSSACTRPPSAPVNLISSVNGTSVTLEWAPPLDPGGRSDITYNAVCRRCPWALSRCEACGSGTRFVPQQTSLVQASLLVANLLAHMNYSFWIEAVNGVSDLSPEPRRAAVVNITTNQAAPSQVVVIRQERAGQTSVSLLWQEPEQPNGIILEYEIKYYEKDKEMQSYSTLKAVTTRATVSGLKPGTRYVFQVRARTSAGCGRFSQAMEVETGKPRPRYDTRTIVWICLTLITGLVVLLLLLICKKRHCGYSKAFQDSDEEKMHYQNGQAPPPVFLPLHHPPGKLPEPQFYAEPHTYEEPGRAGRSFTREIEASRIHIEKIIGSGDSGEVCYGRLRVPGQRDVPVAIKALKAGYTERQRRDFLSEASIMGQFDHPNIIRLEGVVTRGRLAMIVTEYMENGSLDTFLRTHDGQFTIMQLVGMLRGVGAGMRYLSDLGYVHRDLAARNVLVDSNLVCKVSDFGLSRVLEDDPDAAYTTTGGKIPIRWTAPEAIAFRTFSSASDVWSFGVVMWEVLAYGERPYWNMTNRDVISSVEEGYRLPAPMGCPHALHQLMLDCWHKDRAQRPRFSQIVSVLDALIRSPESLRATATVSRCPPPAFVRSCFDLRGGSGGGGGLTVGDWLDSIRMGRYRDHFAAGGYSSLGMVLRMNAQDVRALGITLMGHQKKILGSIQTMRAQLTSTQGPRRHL

[11] = target: EPHB2 (human) (UniProt P29323)
[12] = target: EPHB6 (human) (UniProt O15197)
Chain of EPHB6 (human) (O15197 whole entry, looked up): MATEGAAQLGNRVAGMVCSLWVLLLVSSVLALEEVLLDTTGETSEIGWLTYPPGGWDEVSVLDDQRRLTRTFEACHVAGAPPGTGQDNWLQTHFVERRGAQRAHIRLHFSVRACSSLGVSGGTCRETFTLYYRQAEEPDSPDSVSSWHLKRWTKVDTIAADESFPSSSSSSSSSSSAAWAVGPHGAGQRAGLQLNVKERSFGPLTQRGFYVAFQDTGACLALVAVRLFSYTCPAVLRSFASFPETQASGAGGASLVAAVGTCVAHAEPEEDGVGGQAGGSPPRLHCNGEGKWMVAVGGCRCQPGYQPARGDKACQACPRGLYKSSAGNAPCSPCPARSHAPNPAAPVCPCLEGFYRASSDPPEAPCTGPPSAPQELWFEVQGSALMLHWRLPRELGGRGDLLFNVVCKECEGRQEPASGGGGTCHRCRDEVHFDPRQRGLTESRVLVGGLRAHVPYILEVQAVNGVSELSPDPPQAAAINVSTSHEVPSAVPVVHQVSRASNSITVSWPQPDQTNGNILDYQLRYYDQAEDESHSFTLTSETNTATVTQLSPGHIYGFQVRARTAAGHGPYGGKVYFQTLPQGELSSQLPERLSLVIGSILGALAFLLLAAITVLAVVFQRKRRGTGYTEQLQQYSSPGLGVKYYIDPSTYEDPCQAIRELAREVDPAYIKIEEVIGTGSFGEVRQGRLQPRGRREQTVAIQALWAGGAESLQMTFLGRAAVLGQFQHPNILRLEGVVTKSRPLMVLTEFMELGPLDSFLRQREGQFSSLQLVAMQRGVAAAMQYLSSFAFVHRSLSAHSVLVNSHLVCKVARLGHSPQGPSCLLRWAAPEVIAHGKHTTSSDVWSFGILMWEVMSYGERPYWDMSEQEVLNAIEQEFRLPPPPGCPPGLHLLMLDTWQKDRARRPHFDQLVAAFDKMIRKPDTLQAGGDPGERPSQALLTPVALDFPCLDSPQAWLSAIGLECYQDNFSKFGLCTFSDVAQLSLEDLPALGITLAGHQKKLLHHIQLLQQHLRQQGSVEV

[13] = target: FGFR3 (human) (UniProt P22607)
[14] = target: HIPK3 (human) (UniProt Q9H422)
[15] = target: HUNK (human) (UniProt P57058)
Chain of HUNK (human) (P57058 whole entry, looked up): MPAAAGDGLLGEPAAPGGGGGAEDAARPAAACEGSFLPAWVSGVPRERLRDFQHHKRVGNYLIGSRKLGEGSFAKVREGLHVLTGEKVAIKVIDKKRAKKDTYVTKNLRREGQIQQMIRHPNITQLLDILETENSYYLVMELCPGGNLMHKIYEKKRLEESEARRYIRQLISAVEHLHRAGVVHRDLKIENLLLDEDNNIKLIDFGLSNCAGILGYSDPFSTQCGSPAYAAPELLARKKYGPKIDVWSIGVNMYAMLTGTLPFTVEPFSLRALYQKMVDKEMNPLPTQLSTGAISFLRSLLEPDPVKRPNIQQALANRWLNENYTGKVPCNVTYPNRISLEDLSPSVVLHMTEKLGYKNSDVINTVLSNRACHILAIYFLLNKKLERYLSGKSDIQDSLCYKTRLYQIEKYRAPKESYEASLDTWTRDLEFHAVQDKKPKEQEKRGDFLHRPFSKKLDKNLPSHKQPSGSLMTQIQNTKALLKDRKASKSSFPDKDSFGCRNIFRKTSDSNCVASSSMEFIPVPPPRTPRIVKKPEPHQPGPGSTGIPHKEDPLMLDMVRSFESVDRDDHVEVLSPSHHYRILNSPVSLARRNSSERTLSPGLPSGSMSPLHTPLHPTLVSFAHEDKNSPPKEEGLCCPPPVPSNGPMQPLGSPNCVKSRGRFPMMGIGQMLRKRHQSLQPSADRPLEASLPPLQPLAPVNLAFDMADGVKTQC

[16] = target: ICK (human) (UniProt Q9UPZ9)
[17] = target: LRRK2 (human) (UniProt Q5S007)
[18] = target: MAP3K12 (human) (UniProt Q12852)
Chain of MAP3K12 (human) (Q12852 whole entry, looked up): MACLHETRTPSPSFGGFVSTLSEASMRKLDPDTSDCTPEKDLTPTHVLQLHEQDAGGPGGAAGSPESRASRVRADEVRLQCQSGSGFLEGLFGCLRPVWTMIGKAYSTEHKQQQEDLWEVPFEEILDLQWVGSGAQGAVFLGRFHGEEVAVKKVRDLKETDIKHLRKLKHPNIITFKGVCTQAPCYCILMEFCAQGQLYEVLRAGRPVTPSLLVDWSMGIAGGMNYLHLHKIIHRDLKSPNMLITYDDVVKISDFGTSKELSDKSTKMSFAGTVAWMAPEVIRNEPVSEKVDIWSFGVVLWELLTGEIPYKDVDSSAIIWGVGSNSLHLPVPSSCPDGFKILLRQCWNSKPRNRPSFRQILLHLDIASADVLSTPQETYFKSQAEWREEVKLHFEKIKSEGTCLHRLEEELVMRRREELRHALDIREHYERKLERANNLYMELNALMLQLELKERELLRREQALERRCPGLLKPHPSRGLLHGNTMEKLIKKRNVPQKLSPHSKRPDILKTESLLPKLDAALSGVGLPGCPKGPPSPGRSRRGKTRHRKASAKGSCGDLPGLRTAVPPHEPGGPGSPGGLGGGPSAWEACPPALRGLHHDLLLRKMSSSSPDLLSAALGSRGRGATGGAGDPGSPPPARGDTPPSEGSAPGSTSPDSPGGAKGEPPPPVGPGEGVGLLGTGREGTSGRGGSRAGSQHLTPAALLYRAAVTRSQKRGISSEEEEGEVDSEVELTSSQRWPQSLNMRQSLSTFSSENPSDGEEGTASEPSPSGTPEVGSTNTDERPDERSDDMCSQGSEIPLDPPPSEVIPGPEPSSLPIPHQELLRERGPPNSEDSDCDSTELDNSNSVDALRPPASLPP

[19] = target: MAP3K13 (human) (UniProt O43283)
[20] = target: MAP4K5 (human) (UniProt Q9Y4K4)
[21] = target: MAPK10 (human) (UniProt P53779)
[22] = target: MST4 (human) (UniProt Q9P289)
[23] = target: NEK9 (human) (UniProt Q8TD19)
[24] = target: PAK4 (human) (UniProt O96013)
[25] = target: PIP4K2B (human) (UniProt P78356)
[26] = target: PIP5K1A (human) (UniProt Q99755)
[27] = target: PRKAA1 (human) (UniProt Q13131)
[28] = target: PRKD1 (human) (UniProt Q15139)
[29] = target: PRKD2 (human) (UniProt Q9BZL6)
[30] = target: RIPK2 (human) (UniProt O43353)
[31] = target: RPS6KA3 KD1 (human) (UniProt P51812)
[32] = target: SGK110 (human) (UniProt P0C264)
Chain of SGK110 (human) (P0C264 whole entry, looked up): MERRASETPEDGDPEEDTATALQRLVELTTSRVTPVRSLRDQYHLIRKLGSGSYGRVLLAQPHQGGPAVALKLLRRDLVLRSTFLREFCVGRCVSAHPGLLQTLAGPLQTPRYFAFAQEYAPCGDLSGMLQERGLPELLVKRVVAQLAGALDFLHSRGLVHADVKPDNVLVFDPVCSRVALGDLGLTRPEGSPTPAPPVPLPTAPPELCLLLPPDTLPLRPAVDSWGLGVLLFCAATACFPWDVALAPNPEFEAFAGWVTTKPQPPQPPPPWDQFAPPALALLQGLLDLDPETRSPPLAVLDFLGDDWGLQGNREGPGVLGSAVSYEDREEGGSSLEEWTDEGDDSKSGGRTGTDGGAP

[33] = target: STK16 (human) (UniProt O75716)
[34] = target: STK32A (human) (UniProt Q8WU08)
Chain of STK32A (human) (Q8WU08 whole entry, looked up): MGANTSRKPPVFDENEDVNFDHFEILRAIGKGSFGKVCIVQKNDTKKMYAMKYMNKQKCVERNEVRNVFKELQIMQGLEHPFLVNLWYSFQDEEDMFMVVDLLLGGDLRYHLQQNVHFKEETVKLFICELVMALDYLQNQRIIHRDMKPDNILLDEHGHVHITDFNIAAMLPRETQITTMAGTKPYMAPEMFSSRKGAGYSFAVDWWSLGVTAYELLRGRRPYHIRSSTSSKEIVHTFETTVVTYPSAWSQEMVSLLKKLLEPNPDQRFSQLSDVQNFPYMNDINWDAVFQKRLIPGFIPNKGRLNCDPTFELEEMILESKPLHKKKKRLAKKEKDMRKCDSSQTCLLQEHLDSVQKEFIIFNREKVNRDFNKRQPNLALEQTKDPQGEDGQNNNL

[35] = target: TBK1 (human) (UniProt Q9UHD2)
[36] = target: TESK1 (human) (UniProt Q15569)
[37] = target: TYK2 JH1 catalytic (human) (UniProt P29597)
[38] = target: PLK3 (human) (UniProt Q9H4B4)

Chain of CDK3 (human) (Q00526 whole entry, looked up): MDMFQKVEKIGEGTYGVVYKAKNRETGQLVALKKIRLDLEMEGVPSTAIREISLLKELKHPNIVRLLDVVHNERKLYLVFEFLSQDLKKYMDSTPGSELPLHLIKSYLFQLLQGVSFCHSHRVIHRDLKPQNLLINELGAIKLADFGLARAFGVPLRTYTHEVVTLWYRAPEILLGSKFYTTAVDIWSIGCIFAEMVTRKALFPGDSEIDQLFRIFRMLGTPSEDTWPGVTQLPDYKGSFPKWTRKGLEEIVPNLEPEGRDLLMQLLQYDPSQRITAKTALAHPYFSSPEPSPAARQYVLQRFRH

`CNC(=O)c1cc(Oc2ccc(NC(=O)Nc3ccc(Cl)c(C(F)(F)F)c3)cc2)ccn1` gave a kinase still bound, per cent of control [1] of 75%, a kinase still bound, per cent of control [2] of 69% and a kinase still bound, per cent of control [3] of 78%. It also gave a kinase still bound, per cent of control [4] of 52%, a kinase still bound, per cent of control [5] of 70% and a kinase still bound, per cent of control [6] of 23%. The kinase still bound, per cent of control [7] was 98%, the kinase still bound, per cent of control [8] was 87% and the kinase still bound, per cent of control [9] was 75%. The kinase still bound, per cent of control [10] was 3.9%, the kinase still bound, per cent of control [11] was 17% and the kinase still bound, per cent of control [12] was 3%. For the same compound, the kinase still bound, per cent of control [13] was 31%, the kinase still bound, per cent of control [14] was 0.6% and the kinase still bound, per cent of control [15] was 70%. It also gave a kinase still bound, per cent of control [16] of 92%, a kinase still bound, per cent of control [17] of 77% and a kinase still bound, per cent of control [18] of 57%. It also gave a kinase still bound, per cent of control [19] of 100%, a kinase still bound, per cent of control [20] of 7.2% and a kinase still bound, per cent of control [21] of 100%. The kinase still bound, per cent of control [22] was 100%, the kinase still bound, per cent of control [23] was 79% and the kinase still bound, per cent of control [24] was 91%. For the same compound, the kinase still bound, per cent of control [25] was 94%, the kinase still bound, per cent of control [26] was 100% and the kinase still bound, per cent of control [27] was 42%. It also gave a kinase still bound, per cent of control [28] of 32%, a kinase still bound, per cent of control [29] of 96% and a kinase still bound, per cent of control [30] of 18%. For the same compound, the kinase still bound, per cent of control [31] was 81%, the kinase still bound, per cent of control [32] was 94% and the kinase still bound, per cent of control [33] was 100%. The kinase still bound, per cent of control [34] was 100%, the kinase still bound, per cent of control [35] was 100% and the kinase still bound, per cent of control [36] was 62%. It also gave a kinase still bound, per cent of control [37] of 70%.
Work on `C[C@@H](Oc1cc(-c2cnn(C3CCNCC3)c2)cnc1N)c1c(Cl)ccc(F)c1Cl` yielded a kinase still bound, per cent of control [1] of 38%, a kinase still bound, per cent of control [3] of 28% and a kinase still bound, per cent of control [4] of 100%. The kinase still bound, per cent of control [5] was 81%, the kinase still bound, per cent of control [6] was 84% and the kinase still bound, per cent of control [7] was 100%. For the same compound, the kinase still bound, per cent of control [8] was 97%, the kinase still bound, per cent of control [9] was 42% and the kinase still bound, per cent of control [10] was 0.2%. It also gave a kinase still bound, per cent of control [11] of 24%, a kinase still bound, per cent of control [12] of 0.2% and a kinase still bound, per cent of control [13] of 22%. The kinase still bound, per cent of control [14] was 92%, the kinase still bound, per cent of control [15] was 74% and the kinase still bound, per cent of control [17] was 97%. It also gave a kinase still bound, per cent of control [18] of 9%, a kinase still bound, per cent of control [19] of 10% and a kinase still bound, per cent of control [21] of 80%. The kinase still bound, per cent of control [22] was 13%, the kinase still bound, per cent of control [23] was 6.2% and the kinase still bound, per cent of control [24] was 80%. The kinase still bound, per cent of control [25] was 3.8%, the kinase still bound, per cent of control [26] was 0.1% and the kinase still bound, per cent of control [38] was 85%. The kinase still bound, per cent of control [27] was 8%, the kinase still bound, per cent of control [28] was 2.4% and the kinase still bound, per cent of control [29] was 3.3%. The kinase still bound, per cent of control [30] was 11%, the kinase still bound, per cent of control [31] was 47% and the kinase still bound, per cent of control [32] was 3.4%. It also gave a kinase still bound, per cent of control [33] of 63%, a kinase still bound, per cent of control [34] of 86% and a kinase still bound, per cent of control [35] of 8.7%. The kinase still bound, per cent of control [37] was 14%.
For `COc1cc2ncn(-c3cc(OCc4ccccc4C(F)(F)F)c(C(N)=O)s3)c2cc1OC`, the kinase still bound, per cent of control [1] was 58%, the kinase still bound, per cent of control [2] was 100% and the kinase still bound, per cent of control [3] was 69%. It also gave a kinase still bound, per cent of control [4] of 100%, a kinase still bound, per cent of control [5] of 72% and a kinase still bound, per cent of control [6] of 36%. It also gave a kinase still bound, per cent of control [7] of 78%, a kinase still bound, per cent of control [8] of 36% and a kinase still bound, per cent of control [9] of 100%. For the same compound, the kinase still bound, per cent of control [10] was 74%, the kinase still bound, per cent of control [11] was 94% and the kinase still bound, per cent of control [12] was 9.9%. For the same compound, the kinase still bound, per cent of control [13] was 20%, the kinase still bound, per cent of control [14] was 77% and the kinase still bound, per cent of control [15] was 82%. For the same compound, the kinase still bound, per cent of control [16] was 100%, the kinase still bound, per cent of control [17] was 80% and the kinase still bound, per cent of control [18] was 68%. The kinase still bound, per cent of control [19] was 100%, the kinase still bound, per cent of control [20] was 3% and the kinase still bound, per cent of control [21] was 89%. For the same compound, the kinase still bound, per cent of control [22] was 85%, the kinase still bound, per cent of control [23] was 48% and the kinase still bound, per cent of control [24] was 100%. The kinase still bound, per cent of control [25] was 6.6%, the kinase still bound, per cent of control [26] was 3.4% and the kinase still bound, per cent of control [38] was 0%. It also gave a kinase still bound, per cent of control [27] of 68%, a kinase still bound, per cent of control [28] of 100% and a kinase still bound, per cent of control [29] of 100%. For the same compound, the kinase still bound, per cent of control [30] was 41%, the kinase still bound, per cent of control [31] was 22% and the kinase still bound, per cent of control [32] was 100%. For the same compound, the kinase still bound, per cent of control [33] was 49%, the kinase still bound, per cent of control [34] was 82% and the kinase still bound, per cent of control [35] was 83%. For the same compound, the kinase still bound, per cent of control [36] was 73% and the kinase still bound, per cent of control [37] was 59%.
